Assay results: ChEMBL document CHEMBL1201862, “PubChem BioAssay data set” (2004)
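Growth conditions: 96-well plates. Treatment: test compound, 48 hours, 5 concentrations. Analysis: linear interpolation between bracketing concentrations; unreached endpoints set to highest concentration. GI50 marks 50% less growth.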 Calls of active or inactive are those of the source. Cut-off read from the data, not from the text of the source: active = GI50 up to about 1.1 µM and inactive = higher.

What was measured:
Test in all cases: NCI anticancer screen, dose series, 48 h
[1] = tested on: DLD-1
[2] = tested on: DMS-273
[3] = tested on: HOP-18
[4] = tested on: M19-MEL
[5] = tested on: SNB-78
[6] = tested on: XF498
[7] = tested on: KM-20L2
[8] = tested on: LXFL 529
[9] = tested on: RXF 631

Compound	GI50 [1]	GI50 [2]	GI50 [3]	GI50 [4]	GI50 [5]	GI50 [6]	GI50 [7]	GI50 [8]	GI50 [9]
Nc1c(-c2nc3ccccc3[nH]2)sc(=S)n1-c1ccc(Cl)cc1	48.2 µM (inactive)	19.8 µM (inactive)	20.8 µM (inactive)	32.4 µM (inactive)	30.4 µM (inactive)	35.7 µM (inactive)			
C[C@@H](N[C@H]1CCC[C@@H]1O)c1ccccc1.C[C@@H](N[C@H]1CCC[C@H]1O)c1ccccc1		> 100 µM (inactive)	48.8 µM (inactive)	> 100 µM (inactive)	> 100 µM (inactive)	> 100 µM (inactive)	38.2 µM (inactive)		
O=C(NCCc1ccccc1)C1C(=O)C(=O)N(CCc2ccccc2)C1=O (stereo unspecified)	> 100 µM (inactive)	> 100 µM (inactive)		> 100 µM (inactive)	> 100 µM (inactive)	> 100 µM (inactive)	> 100 µM (inactive)	> 100 µM (inactive)	> 100 µM (inactive)
COc1cccc(NC(=O)CC(=O)N2N=C(N(CCC#N)c3ccccc3C)CC2c2ccccc2)c1 (stereo unspecified)	> 100 µM (inactive)	> 100 µM (inactive)	> 100 µM (inactive)	> 100 µM (inactive)	> 100 µM (inactive)		> 100 µM (inactive)	> 100 µM (inactive)	> 100 µM (inactive)
OCC(O)COc1ccc(F)cc1 (stereo unspecified)	> 100 µM (inactive)	> 100 µM (inactive)	> 100 µM (inactive)	> 100 µM (inactive)	> 100 µM (inactive)	> 100 µM (inactive)	> 100 µM (inactive)	> 100 µM (inactive)	
COc1ccc2c(c1O)C(=O)C(CCC(=O)O)CC2 (stereo unspecified)	> 100 µM (inactive)	> 100 µM (inactive)	> 100 µM (inactive)	> 100 µM (inactive)	> 100 µM (inactive)	> 100 µM (inactive)	> 100 µM (inactive)	> 100 µM (inactive)	> 100 µM (inactive)
CC(=O)OCC1=C(C(=O)O)C(c2ccc3c(c2)OCO3)c2cc3c(cc2O1)OCO3 (stereo unspecified)	> 100 µM (inactive)	> 100 µM (inactive)	> 100 µM (inactive)	> 100 µM (inactive)	> 100 µM (inactive)	> 100 µM (inactive)	> 100 µM (inactive)		> 100 µM (inactive)
CCNC(=O)CCN(C(=O)O)S(=O)(=O)c1ccc(NC(=O)c2ccccc2)cc1	> 100 µM (inactive)	23.8 µM (inactive)	> 100 µM (inactive)	77.6 µM (inactive)	> 100 µM (inactive)	> 100 µM (inactive)	> 100 µM (inactive)	> 100 µM (inactive)	
NC(=O)c1ncn2c1NCC1OC2C(O)C1O (stereo unspecified)	> 100 µM (inactive)	> 100 µM (inactive)	> 100 µM (inactive)	> 100 µM (inactive)	> 100 µM (inactive)	> 100 µM (inactive)	> 100 µM (inactive)	> 100 µM (inactive)	> 100 µM (inactive)
NNC(=S)N/N=C(\CCCC(=O)NCCc1ccccc1)CC(=O)c1ccccc1	> 100 µM (inactive)		> 100 µM (inactive)	> 100 µM (inactive)	> 100 µM (inactive)		> 100 µM (inactive)	> 100 µM (inactive)	
CCCNC1=C(C)C(=O)C2=C(C1=O)[C@H](COC(N)=O)[C@]1(OC)[C@@H]3N[C@@H]3CN21	5 µM (inactive)	0.257 µM (active)	13.4 µM (inactive)	3.44 µM (inactive)	26.9 µM (inactive)	4.78 µM (inactive)	8.75 µM (inactive)		
COc1ccc2c(c1)c1c(C)c3cnccc3c(C)c1n2CCCN	0.0853 µM (active)	0.1 µM (active)	0.42 µM (active)	0.203 µM (active)	0.286 µM (active)	0.422 µM (active)	0.119 µM (active)		
COC(=O)C1=C(O)c2cc(OC)c(OC)c(OC)c2[C@H](c2cc(OC)c(OC)c(OC)c2)C1C(=O)OC (stereo partly specified)	45.1 µM (inactive)	15.8 µM (inactive)			32.1 µM (inactive)	51.8 µM (inactive)	18.2 µM (inactive)	31.1 µM (inactive)	41.7 µM (inactive)
COC1(OC)C2(Cl)C(Cl)=C(Cl)C1(Cl)C1C=CC=CC12 (stereo unspecified)	67.5 µM (inactive)	60.8 µM (inactive)		44.9 µM (inactive)	> 100 µM (inactive)	46.6 µM (inactive)	35.2 µM (inactive)	> 100 µM (inactive)	13.1 µM (inactive)
O=C(c1cccs1)N(C(=S)N1CCN(c2ccccc2)CC1)C1CCCCC1	> 100 µM (inactive)	> 100 µM (inactive)	> 100 µM (inactive)	> 100 µM (inactive)	> 100 µM (inactive)		> 100 µM (inactive)	> 100 µM (inactive)	
O=P(Nc1ccccc1)(Oc1ccccc1)N(CCCl)CCCl (stereo unspecified)	> 100 µM (inactive)	> 100 µM (inactive)	> 100 µM (inactive)	> 100 µM (inactive)	> 100 µM (inactive)		> 100 µM (inactive)		> 100 µM (inactive)
CSCCC(NC(=O)C(Cc1ccccc1)NC(=O)CNC(=O)CNC(=O)C(N)Cc1ccc(O)cc1)C(=O)O (stereo unspecified)		> 100 µM (inactive)	> 100 µM (inactive)	> 100 µM (inactive)	> 100 µM (inactive)		> 20.3 µM (inactive)		
CCCc1ccc(NCc2cc(OC)c(OC)c(OC)c2)cc1	23.9 µM (inactive)		31.3 µM (inactive)	20.5 µM (inactive)	56.9 µM (inactive)	18.9 µM (inactive)	28.6 µM (inactive)	17 µM (inactive)	
COc1ccc(OC(C)C(=O)O)c2c(=O)ccccc12 (stereo unspecified)	> 100 µM (inactive)	> 100 µM (inactive)		> 100 µM (inactive)	> 100 µM (inactive)	> 100 µM (inactive)	> 100 µM (inactive)	> 100 µM (inactive)	> 100 µM (inactive)
COc1ccc(C[C@H](N)C(=O)N2C[C@@H](CO)C[C@@H](n3ccc(=O)[nH]c3=O)C2)cc1	> 100 µM (inactive)	> 100 µM (inactive)	> 100 µM (inactive)	> 100 µM (inactive)			> 100 µM (inactive)	> 100 µM (inactive)	
COc1ccc2oc(-c3ccncc3)cc(=O)c2c1	> 100 µM (inactive)	62.8 µM (inactive)				> 100 µM (inactive)		> 100 µM (inactive)	40.5 µM (inactive)
COc1ccc(OC)c(CC(C)N)c1 (stereo unspecified)	> 100 µM (inactive)		> 100 µM (inactive)	> 100 µM (inactive)		> 100 µM (inactive)	> 100 µM (inactive)	> 100 µM (inactive)	
CC(=O)O[C@H]1CC[C@@]2(C)C(=CC[C@H]3C4=CC=C(C(C)=O)[C@@]4(C)CCC32)C1 (stereo partly specified)	37.8 µM (inactive)	28.2 µM (inactive)	> 100 µM (inactive)	36.3 µM (inactive)	28.2 µM (inactive)		44.1 µM (inactive)	30.5 µM (inactive)	
N#Cc1ccc(/C=C(/C(=O)c2ccccc2)c2ccccc2)cc1	6.58 µM (inactive)	4.82 µM (inactive)	27.5 µM (inactive)	14 µM (inactive)	2.79 µM (inactive)	10.1 µM (inactive)	11.2 µM (inactive)	4.78 µM (inactive)	11.1 µM (inactive)
C[C@]12C/C(=C/O)C(=O)C(O)=C1CC[C@@H]1C2CC[C@@]2(C)C1CC[C@@H]2O (stereo partly specified)		23.5 µM (inactive)	33.7 µM (inactive)	21.2 µM (inactive)	19.7 µM (inactive)	17.6 µM (inactive)	22.6 µM (inactive)	16.2 µM (inactive)	20.6 µM (inactive)
O=c1c(C(c2ccc(Cl)cc2)c2c(O)c3ccccc3n(-c3ccccc3)c2=O)c(O)c2ccccc2n1-c1ccccc1	7.08 µM (inactive)	36.9 µM (inactive)	> 100 µM (inactive)	48.1 µM (inactive)	48.8 µM (inactive)	18.8 µM (inactive)	37.6 µM (inactive)	26.5 µM (inactive)	19.1 µM (inactive)
Cc1ccc(C(C)(C)C[P+](C)(c2ccccc2)c2ccccc2)cc1	27.2 µM (inactive)	4.89 µM (inactive)	6.43 µM (inactive)	4.52 µM (inactive)	14.7 µM (inactive)	2.88 µM (inactive)	6.1 µM (inactive)		
